Data: patent US12534706B2, “Method for maturation of retinal tissue containing continuous epithelium” (RIKEN, priority 2017, dated 2026)

Legend:
[1] = test system: cell aggregate containing a retinal tissue (CRX::Venus knock-in human ES cells); assay: Continuous epithelium rate of retinal tissue after adding a substance to the medium of culture method [A]; type: cell-based; conditions: day 38 to day 54, 55 or 56
Procedure: A cell aggregate containing a retinal tissue was prepared by the method described in “Kuwahara et al. Nat Commun 2015, 19(6), 6286” after modification in part. That is, the aforementioned cultured ES cells were individually dispersed using TrypLE Express (Invitrogen), and the individually dispersed human ES cells were suspended in 100 μL of a serum-free medium in a cell non-adhesive 96 well culture plate (SUMILON spheroid plate, SUMITOMO BAKELITE CO., LTD.) at 9×10^3 cells per well to allow rapid formation of aggregates, after which they were cultured at 37° C., 5% CO2. As the serum-free medium therefor, a serum-free medium obtained by adding 10% KSR, 450 μM 1-monothioglycerol, 1× Chemically defined lipid concentrate, 5 mg/mL BSA, 20 μM Y27632 to a 1:1 mixture of F-12 medium and IMDM medium was used. At 6 days after the start of suspension culture, BMP4 at a final concentration of 1.5 nM was added and suspension culture was continued. A half amount of the culture medium in the well was exchanged with the above-mentioned medium not supplemented with a BMP signal transduction pathway agonist every 3 or 4 days. A cell aggregate containing a retinal tissue at day 18 from the start of suspension culture was cultured in suspension in a serum-free medium containing 3 μM CHIR99021 and 5 μM SU5402 (DMEM/F12 medium supplemented with 1% N2 supplement) for 4 days, namely, until day 22 from the start of suspension culture. Thereafter, suspension culture was continued using the serum-containing medium. The serum-containing medium used then and the culture method are shown in the following [A] to [C]. The suspension culture of the cell aggregate containing the retinal tissue was continued until it was appropriately used for analysis and the like. • [A] From day 22 to day 56 from the start of suspension culture, suspension culture was performed using a medium obtained by adding 10% bovine calf serum, 1% N2 supplement, and 100 μM taurine to the DMEM/F12 medium. • [B] From day 22 to day 38 from the start of suspension culture, suspension culture was performed using a medium obtained by adding 10% bovine calf serum, 1% N2 supplement, and 100 μM taurine to the DMEM/F12 medium; and from day 38 to day 56 from the start of suspension culture, suspension culture was performed using a 1:3 mixed medium of a medium obtained by adding 10% bovine calf serum, 1% N2 supplement, and 100 μM taurine to the DMEM/F12 medium and a medium obtained by adding 10% bovine calf serum, 2% B27 supplement, and 100 μM taurine to the Neurobasal medium. • [C] […]

[2] = test system: cell aggregate containing a retinal tissue (CRX::Venus knock-in human ES cells); assay: Continuous epithelium rate of retinal tissue after adding a substance to the medium of culture method [B] (day 38 to 56); type: cell-based; conditions: day 38 to day 54, 55 or 56
Procedure: A cell aggregate containing a retinal tissue was prepared by the method described in “Kuwahara et al. Nat Commun 2015, 19(6), 6286” after modification in part. That is, the aforementioned cultured ES cells were individually dispersed using TrypLE Express (Invitrogen), and the individually dispersed human ES cells were suspended in 100 μL of a serum-free medium in a cell non-adhesive 96 well culture plate (SUMILON spheroid plate, SUMITOMO BAKELITE CO., LTD.) at 9×10^3 cells per well to allow rapid formation of aggregates, after which they were cultured at 37° C., 5% CO2. As the serum-free medium therefor, a serum-free medium obtained by adding 10% KSR, 450 μM 1-monothioglycerol, 1× Chemically defined lipid concentrate, 5 mg/mL BSA, 20 μM Y27632 to a 1:1 mixture of F-12 medium and IMDM medium was used. At 6 days after the start of suspension culture, BMP4 at a final concentration of 1.5 nM was added and suspension culture was continued. A half amount of the culture medium in the well was exchanged with the above-mentioned medium not supplemented with a BMP signal transduction pathway agonist every 3 or 4 days. A cell aggregate containing a retinal tissue at day 18 from the start of suspension culture was cultured in suspension in a serum-free medium containing 3 μM CHIR99021 and 5 μM SU5402 (DMEM/F12 medium supplemented with 1% N2 supplement) for 4 days, namely, until day 22 from the start of suspension culture. Thereafter, suspension culture was continued using the serum-containing medium. The serum-containing medium used then and the culture method are shown in the following [A] to [C]. The suspension culture of the cell aggregate containing the retinal tissue was continued until it was appropriately used for analysis and the like. • [A] From day 22 to day 56 from the start of suspension culture, suspension culture was performed using a medium obtained by adding 10% bovine calf serum, 1% N2 supplement, and 100 μM taurine to the DMEM/F12 medium. • [B] From day 22 to day 38 from the start of suspension culture, suspension culture was performed using a medium obtained by adding 10% bovine calf serum, 1% N2 supplement, and 100 μM taurine to the DMEM/F12 medium; and from day 38 to day 56 from the start of suspension culture, suspension culture was performed using a 1:3 mixed medium of a medium obtained by adding 10% bovine calf serum, 1% N2 supplement, and 100 μM taurine to the DMEM/F12 medium and a medium obtained by adding 10% bovine calf serum, 2% B27 supplement, and 100 μM taurine to the Neurobasal medium. • [C] From day 22 to day 56 from the start of suspension culture, suspension culture was performed using a medium obtained by adding 10% bovine calf serum, 2% B27 supplement, and 100 μM taurine to the Neurobasal medium (manufactured by Thermo Scientific, 21103049).
Thus, among the substances contained in the medium used in the culture method [B] from day 38 to day 56 from the start of suspension culture in the culturing method [B], a substance that may greatly affect cell differentiation, cell protection, and cell death of retinal tissues was added to the medium used in the culture method [A], and whether it contributes to the improvement of continuous epithelium rate was studied. […]

## CSCC[C@H](N)C(=O)O [methionine]
[1]; final concentration 26.81 mg/L in culture method [A] medium, vs nothing added
  continuous epithelium rate: increased

## vitamin B12
[2]; final concentration 0.68 mg/L in culture method [B] medium
  continuous epithelium rate: contributed to a decrease

## C[C@]12C[C@H](O)[C@H]3[C@@H](CCC4=CC(=O)CC[C@@]43C)[C@@H]1CC[C@@H]2C(=O)CO [corticosterone, reference compound]
[1]; final concentration 100 nM added to culture method [A] medium, vs nothing added (corticosterone)
  continuous epithelium rate: increased

## CC(=O)[C@H]1CC[C@H]2[C@@H]3CCC4=CC(=O)CC[C@]4(C)[C@H]3CC[C@]12C [progesterone, reference compound]
[1]; final concentration 100 nM added to culture method [A] medium, vs nothing added (progesterone)
  continuous epithelium rate: similarly decreased

## N[C@@H](CCC(=O)O)C(=O)O [L-glutamic acid]
[2]; L-glutamic acid alone, final concentration 50 μM in culture method [B] medium
  continuous epithelium rate: contributed to the decrease

## Cc1cn([C@H]2C[C@H](O)[C@@H](CO)O2)c(=O)[nH]c1=O [thymidine]
[2]; final concentration 1.5 μM in culture method [B] medium
  continuous epithelium rate: contributed to a decrease

## O=c1[nH]cnc2nc[nH]c12 [hypoxanthine]
[2]; final concentration 15 μM in culture method [B] medium
  continuous epithelium rate: contributed to a decrease

## N[C@@H](CS)C(=O)O [cysteine]
[1]; final concentration 0.22 mM in culture method [A] medium, vs nothing added
  continuous epithelium rate: decreased

## N[C@@H](CC(=O)O)C(=O)O [L-aspartic acid]
[2]; L-aspartic acid alone, final concentration 50 μM in culture method [B] medium
  continuous epithelium rate: decreased the continuous epithelium rate slightly, but the difference was not significant
